Measurements: patent US12371428B2 (Exelixis, Inc., priority 2019, dated 2025)
Read-outs that look alike come from different tables or passages of the source.

Columns and labels:
Format in all cases: cell-based
[1] = biological target: AXL (phospho-AXL, Gas6-stimulated A-172 glioblastoma cells) (Homo sapiens (Human), UniProt P30530); assay: AXL autophosphorylation ELISA in A-172 cells (Example E); conditions: cellular activity, read-out: Axl IC50
In short: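 Phospho-AXL in lysates was quantified by ELISA, normalised to DMSO (100%) and reference inhibitor (0%) controls. IC50 by 4-parameter logistic fit.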

[2] = biological target: Met (phospho-Met, HGF-stimulated PC-3 prostate cancer cells) (Homo sapiens (Human), UniProt P08581); assay: Met autophosphorylation ELISA in PC-3 cells (Example F); conditions: cellular activity, read-out: c-Met IC50
In short: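 Sandwich ELISA for phospho-Met (panTyr) in PC-3 lysates. Cells starved 3 h serum-free, compound 1 h (8-pt curve, 0.3% DMSO), HGF 100 ng/mL 10 min. 100% = HGF + DMSO; 0% = HGF + reference inhibitor. IC50 by 4-parameter fit.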

[3] = biological target: Mer (phospho-Mer, MERTK-transfected 293A cells) (Homo sapiens (Human), UniProt Q12866); assay: Mer autophosphorylation ELISA in transient transfected 293A cells (Example H); conditions: cellular activity
In short: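 Inhibition of cellular Mer autophosphorylation is determined in 293A cells transiently expressing human MERTK after 1 h compound exposure (8 concentrations, serum-free, 0.3% DMSO). Phospho-Mer in clarified lysates is measured by ELISA, with DMSO and reference-inhibitor wells defining the 100% and 0% activity limits.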

[4] = biological target: KDR (phospho-KDR, VEGF165-stimulated HUVEC cells) (Homo sapiens (Human), UniProt P35968); assay: KDR autophosphorylation ELISA in HUVEC cells (Example G); conditions: cellular activity
In short: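 Cells seeded, grown 24 h at 37 °C, starved 24 h serum-free; cpd 8-pt curve, 0.3% DMSO, 1 h; VEGF165 100 ng/mL, 5 min; cold PBS wash, lysis with orthovanadate and protease/phosphatase inhibitors; pKDR ELISA; IC50 by 4-parameter logistic regression.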

[5] = AXL autophosphorylation ELISA in A-172 cells
[6] = Met autophosphorylation ELISA in PC-3 cells
[7] = Mer autophosphorylation ELISA in transient transfected 293A cells
[8] = KDR autophosphorylation ELISA in HUVEC cells

Mer (phospho-Mer, MERTK-transfected 293A cells), sequence (Q12866 21-999): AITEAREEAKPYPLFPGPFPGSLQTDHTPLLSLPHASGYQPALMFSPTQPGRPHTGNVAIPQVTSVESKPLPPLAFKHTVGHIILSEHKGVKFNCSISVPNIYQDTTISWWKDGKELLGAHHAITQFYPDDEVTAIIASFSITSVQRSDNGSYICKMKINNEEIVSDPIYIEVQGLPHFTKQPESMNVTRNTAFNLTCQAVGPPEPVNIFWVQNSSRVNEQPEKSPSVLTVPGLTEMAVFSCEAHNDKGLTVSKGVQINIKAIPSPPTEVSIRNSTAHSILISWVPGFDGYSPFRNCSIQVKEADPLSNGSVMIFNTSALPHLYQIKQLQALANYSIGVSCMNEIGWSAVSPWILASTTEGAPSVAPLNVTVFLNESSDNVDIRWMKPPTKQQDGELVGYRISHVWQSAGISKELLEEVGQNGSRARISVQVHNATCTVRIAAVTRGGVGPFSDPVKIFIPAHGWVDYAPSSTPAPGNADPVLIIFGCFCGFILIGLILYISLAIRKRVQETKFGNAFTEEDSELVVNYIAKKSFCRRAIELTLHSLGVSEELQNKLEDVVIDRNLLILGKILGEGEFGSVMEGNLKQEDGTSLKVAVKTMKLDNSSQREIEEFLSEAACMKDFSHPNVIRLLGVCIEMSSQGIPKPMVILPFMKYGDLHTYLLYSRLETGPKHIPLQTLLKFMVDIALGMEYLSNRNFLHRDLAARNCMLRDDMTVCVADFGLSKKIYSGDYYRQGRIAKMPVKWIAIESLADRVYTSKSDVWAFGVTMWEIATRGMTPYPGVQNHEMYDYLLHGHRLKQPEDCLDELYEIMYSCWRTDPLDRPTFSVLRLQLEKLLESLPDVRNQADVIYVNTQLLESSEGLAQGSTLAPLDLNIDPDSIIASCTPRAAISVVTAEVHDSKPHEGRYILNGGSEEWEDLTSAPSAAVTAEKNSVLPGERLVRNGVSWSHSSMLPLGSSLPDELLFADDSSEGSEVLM
Met (phospho-Met, HGF-stimulated PC-3 prostate cancer cells), sequence (P08581 25-1390): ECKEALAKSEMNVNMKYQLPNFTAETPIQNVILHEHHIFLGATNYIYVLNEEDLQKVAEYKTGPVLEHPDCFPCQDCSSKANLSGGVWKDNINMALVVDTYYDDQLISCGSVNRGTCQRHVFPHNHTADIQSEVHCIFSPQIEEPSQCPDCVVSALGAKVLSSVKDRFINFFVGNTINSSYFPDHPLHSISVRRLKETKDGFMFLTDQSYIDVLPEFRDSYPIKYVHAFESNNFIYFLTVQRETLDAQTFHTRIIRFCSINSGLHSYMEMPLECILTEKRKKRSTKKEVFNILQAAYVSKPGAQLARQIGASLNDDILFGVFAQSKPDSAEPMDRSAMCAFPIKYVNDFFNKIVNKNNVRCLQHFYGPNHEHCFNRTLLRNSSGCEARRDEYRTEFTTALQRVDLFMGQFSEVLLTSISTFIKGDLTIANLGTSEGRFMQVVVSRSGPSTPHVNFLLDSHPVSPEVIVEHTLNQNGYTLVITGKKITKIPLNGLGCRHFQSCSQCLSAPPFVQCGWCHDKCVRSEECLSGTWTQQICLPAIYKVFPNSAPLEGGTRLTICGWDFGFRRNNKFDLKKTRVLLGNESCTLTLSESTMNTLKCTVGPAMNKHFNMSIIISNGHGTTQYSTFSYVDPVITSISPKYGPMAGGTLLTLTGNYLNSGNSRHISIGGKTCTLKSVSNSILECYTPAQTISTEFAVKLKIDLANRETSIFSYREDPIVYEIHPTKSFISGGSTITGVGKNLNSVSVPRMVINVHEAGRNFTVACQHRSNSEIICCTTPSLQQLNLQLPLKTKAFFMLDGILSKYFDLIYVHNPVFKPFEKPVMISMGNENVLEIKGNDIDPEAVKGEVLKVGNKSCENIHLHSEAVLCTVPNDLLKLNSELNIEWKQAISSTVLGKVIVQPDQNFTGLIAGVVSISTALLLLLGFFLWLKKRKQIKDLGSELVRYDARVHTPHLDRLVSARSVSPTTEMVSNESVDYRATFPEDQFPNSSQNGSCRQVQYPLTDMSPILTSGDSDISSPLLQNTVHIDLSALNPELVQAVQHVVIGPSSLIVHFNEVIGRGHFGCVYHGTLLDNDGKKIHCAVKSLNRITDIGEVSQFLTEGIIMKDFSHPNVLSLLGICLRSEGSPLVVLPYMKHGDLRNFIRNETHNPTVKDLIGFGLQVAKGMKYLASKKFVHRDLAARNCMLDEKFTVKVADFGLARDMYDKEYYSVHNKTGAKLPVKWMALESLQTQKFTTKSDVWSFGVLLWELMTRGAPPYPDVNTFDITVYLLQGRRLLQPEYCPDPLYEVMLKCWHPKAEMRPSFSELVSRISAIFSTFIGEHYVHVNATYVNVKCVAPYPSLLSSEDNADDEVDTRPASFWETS
KDR (phospho-KDR, VEGF165-stimulated HUVEC cells), sequence (P35968 20-1356): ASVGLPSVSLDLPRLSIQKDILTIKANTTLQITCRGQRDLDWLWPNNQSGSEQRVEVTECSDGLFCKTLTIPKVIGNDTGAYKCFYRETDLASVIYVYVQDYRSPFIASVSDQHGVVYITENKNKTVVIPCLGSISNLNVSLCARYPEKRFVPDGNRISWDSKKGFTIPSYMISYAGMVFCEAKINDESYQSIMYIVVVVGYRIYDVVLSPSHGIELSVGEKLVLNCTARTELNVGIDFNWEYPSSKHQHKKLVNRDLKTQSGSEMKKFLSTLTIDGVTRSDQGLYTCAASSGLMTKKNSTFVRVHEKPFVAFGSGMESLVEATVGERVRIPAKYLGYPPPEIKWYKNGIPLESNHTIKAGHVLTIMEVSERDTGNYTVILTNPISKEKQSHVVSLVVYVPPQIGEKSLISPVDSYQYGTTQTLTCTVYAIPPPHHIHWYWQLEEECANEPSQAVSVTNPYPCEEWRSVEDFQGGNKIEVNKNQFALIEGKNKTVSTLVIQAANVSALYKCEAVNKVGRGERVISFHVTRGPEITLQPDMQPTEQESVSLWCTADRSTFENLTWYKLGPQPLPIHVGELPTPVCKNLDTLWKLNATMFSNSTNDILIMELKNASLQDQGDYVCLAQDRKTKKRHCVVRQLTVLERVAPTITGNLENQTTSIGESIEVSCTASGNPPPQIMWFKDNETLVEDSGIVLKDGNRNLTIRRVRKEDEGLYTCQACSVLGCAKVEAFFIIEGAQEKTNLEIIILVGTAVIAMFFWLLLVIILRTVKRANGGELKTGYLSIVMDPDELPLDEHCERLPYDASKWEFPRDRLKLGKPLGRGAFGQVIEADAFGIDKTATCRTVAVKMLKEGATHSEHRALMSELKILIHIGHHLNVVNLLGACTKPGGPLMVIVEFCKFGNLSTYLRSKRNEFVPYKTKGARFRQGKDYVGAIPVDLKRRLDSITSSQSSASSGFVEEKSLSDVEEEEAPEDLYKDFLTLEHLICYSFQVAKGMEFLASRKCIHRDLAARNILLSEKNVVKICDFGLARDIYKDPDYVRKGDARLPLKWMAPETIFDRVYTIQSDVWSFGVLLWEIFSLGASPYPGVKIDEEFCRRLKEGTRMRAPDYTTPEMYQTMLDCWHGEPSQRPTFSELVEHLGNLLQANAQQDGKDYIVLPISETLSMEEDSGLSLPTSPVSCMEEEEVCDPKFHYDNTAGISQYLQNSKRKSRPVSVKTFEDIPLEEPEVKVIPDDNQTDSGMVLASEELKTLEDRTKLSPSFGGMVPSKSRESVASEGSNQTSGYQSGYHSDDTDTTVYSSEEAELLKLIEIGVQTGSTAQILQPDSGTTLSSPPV
AXL (phospho-AXL, Gas6-stimulated A-172 glioblastoma cells), sequence (P30530 26-894): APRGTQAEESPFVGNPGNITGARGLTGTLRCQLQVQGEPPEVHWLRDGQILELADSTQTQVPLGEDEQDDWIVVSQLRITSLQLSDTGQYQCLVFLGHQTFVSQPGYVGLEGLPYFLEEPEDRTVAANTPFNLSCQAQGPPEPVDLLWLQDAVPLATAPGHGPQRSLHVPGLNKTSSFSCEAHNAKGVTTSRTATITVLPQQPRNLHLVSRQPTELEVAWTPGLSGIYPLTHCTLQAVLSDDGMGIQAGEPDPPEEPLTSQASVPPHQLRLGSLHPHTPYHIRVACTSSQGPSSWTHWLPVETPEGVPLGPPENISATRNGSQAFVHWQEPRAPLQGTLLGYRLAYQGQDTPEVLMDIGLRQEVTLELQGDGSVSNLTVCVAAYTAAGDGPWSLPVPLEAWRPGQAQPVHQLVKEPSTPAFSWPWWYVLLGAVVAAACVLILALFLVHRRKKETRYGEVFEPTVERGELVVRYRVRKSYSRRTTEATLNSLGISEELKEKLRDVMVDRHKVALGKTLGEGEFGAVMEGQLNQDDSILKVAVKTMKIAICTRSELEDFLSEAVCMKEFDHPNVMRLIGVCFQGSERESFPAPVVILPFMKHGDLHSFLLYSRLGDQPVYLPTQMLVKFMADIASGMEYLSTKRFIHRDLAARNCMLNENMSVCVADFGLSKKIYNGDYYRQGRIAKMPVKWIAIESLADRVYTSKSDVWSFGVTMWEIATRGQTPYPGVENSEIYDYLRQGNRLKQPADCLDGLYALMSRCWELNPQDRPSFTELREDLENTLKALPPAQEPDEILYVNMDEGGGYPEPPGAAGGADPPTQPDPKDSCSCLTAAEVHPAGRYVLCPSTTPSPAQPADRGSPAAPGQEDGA

Structure (SMILES) | IC50 [1, 5] | IC50 [2, 6] | IC50 [3, 7] | IC50 [4, 8] | IC50 ([1]; A-172 cells) | IC50 ([2]; PC-3 cells) | IC50 ([3]; transfected 293A cells) | IC50 ([4]; HUVEC cells)
COc1cc2nccc(Oc3ccc(NC(=O)c4c(OC)c(C(C)=O)cn(-c5ccc(F)cc5)c4=O)cc3)c2nc1OC [Compound 753, 5-acetyl-N-[4-[(6,7-dimethoxy-1,5-naphthyridin-4-yl)oxy]phenyl]-1-(4-fluorophenyl)-4-methoxy-2-oxopyridine-3-carboxamide] | < 100 nM | < 100 nM | < 100 nM | > 300 nM | – | – | – | –
C=C(C)c1cnc2c(Oc3ccc(NC(=O)c4n[nH]c(C)c(-c5ccc(F)cc5C)c4=O)cc3F)ccnc2c1 [Compound 463, 5-(4-fluoro-2-methylphenyl)-N-[3-fluoro-4-[(7-prop-1-en-2-yl-1,5-naphthyridin-4-yl)oxy]phenyl]-6-methyl-4-oxo-1H-pyridazine-3-carboxamide] | < 100 nM | < 100 nM | < 100 nM | < 100 nM | – | – | – | –
COCCOc1cc2nccc(Oc3ccc(NC(=O)c4c(C)ccn(-c5ccc(F)cc5)c4=O)cc3F)c2nc1OC [Compound 703, N-[3-fluoro-4-[[6-methoxy-7-(2-methoxyethoxy)-1,5-naphthyridin-4-yl]oxy]phenyl]-1-(4-fluorophenyl)-4-methyl-2-oxopyridine-3-carboxamide] | < 100 nM | < 100 nM | < 100 nM | < 100 nM | – | – | – | –
COc1cc2nccc(Oc3cc(F)c(NC(=O)c4c(C)n(C)c(C)c(-c5ccc(F)cc5)c4=O)cc3F)c2nc1OC [Compound 769, N-[4-[(6,7-dimethoxy-1,5-naphthyridin-4-yl)oxy]-2,5-difluorophenyl]-5-(4-fluorophenyl)-1,2,6-trimethyl-4-oxopyridine-3-carboxamide] | < 100 nM | < 100 nM | < 100 nM | 100 to 300 nM | – | – | – | –
COc1cc2nccc(Oc3ccc(NC(=O)c4c(C)[nH]nc(-c5ccc(F)cc5)c4=O)cc3F)c2nc1OC [Compound 653, N-[4-[(6,7-dimethoxy-1,5-naphthyridin-4-yl)oxy]-3-fluorophenyl]-3-(4-fluorophenyl)-6-methyl-4-oxo-1H-pyridazine-5-carboxamide] | < 100 nM | < 100 nM | < 100 nM | < 100 nM | – | – | – | –
COc1cnc2c(Oc3ccc(NC(=O)c4c5n(cc(-c6ccc(F)cc6)c4=O)CCOC5)cc3F)ccnc2c1 [Compound 809, N-[3-fluoro-4-[(7-methoxy-1,5-naphthyridin-4-yl)oxy]phenyl]-7-(4-fluorophenyl)-8-oxo-3,4-dihydro-1H-pyrido[2,1-c][1,4]oxazine-9-carboxamide] | – | – | – | – | < 100 nM | < 100 nM | < 100 nM | > 300 nM
COc1cc2nccc(Oc3ccc(NC(=O)c4nnc(C)c(-c5ccc(F)cc5C)c4OC)cc3F)c2nc1OC [Compound 489, N-[4-[(6,7-dimethoxy-1,5-naphthyridin-4-yl)oxy]-3-fluorophenyl]-5-(4-fluoro-2-methylphenyl)-4-methoxy-6-methylpyridazine-3-carboxamide] | < 100 nM | < 100 nM | < 100 nM | < 100 nM | – | – | – | –
COc1cc2nccc(Oc3ccc(NC(=O)c4c(C)c(F)c(C)n(-c5ccc(F)cc5)c4=O)cc3F)c2nc1OC [Compound 324, N-[4-[(6,7-Dimethoxy-1,5-naphthyridin-4-yl)oxy]-3-fluorophenyl]-5-fluoro-1-(4-fluorophenyl)-4,6-dimethyl-2-oxopyridine-3-carboxamide] | < 100 nM | < 100 nM | < 100 nM | < 100 nM | – | – | – | –
CCOc1nc2c(Oc3ccc(NC(=O)c4c(C)nc(C)c(-c5ccc(F)cc5C)c4O)cc3)ccnc2cc1OC [Compound 674, N-[4-[(6-ethoxy-7-methoxy-1,5-naphthyridin-4-yl)oxy]phenyl]-5-(4-fluoro-2-methylphenyl)-4-hydroxy-2,6-dimethylpyridine-3-carboxamide] | < 100 nM | < 100 nM | < 100 nM | < 100 nM | – | – | – | –
COc1cnc2c(Oc3ccc(NC(=O)c4c5n(c(C)c(-c6ccc(F)cc6)c4=O)CCOC5)cc3F)ccnc2c1 [Compound 783, N-[3-fluoro-4-[(7-methoxy-1,5-naphthyridin-4-yl)oxy]phenyl]-7-(4-fluorophenyl)-6-methyl-8-oxo-3,4-dihydro-1H-pyrido[2,1-c][1,4]oxazine-9-carboxamide] | < 100 nM | < 100 nM | < 100 nM | > 300 nM | – | – | – | –

Results, then the compound that gave them:

IC50 [1, 5] | IC50 [2, 6] | IC50 [3, 7] | IC50 [4, 8] | IC50 ([1]; A-172 cells) | IC50 ([2]; PC-3 cells) | IC50 ([3]; transfected 293A cells) | IC50 ([4]; HUVEC cells) | Structure (SMILES)
< 100 nM | < 100 nM | < 100 nM | < 100 nM | – | – | – | – | COc1nc2c(Oc3ccc(NC(=O)c4n[nH]c(C)c(-c5ccc(F)cc5)c4=O)cc3F)ccnc2cc1C [Compound 472, N-[3-fluoro-4-[(6-methoxy-7-methyl-1,5-naphthyridin-4-yl)oxy]phenyl]-5-(4-fluorophenyl)-6-methyl-4-oxo-1H-pyridazine-3-carboxamide]
< 100 nM | < 100 nM | < 100 nM | < 100 nM | – | – | – | – | C=C(C)c1cnc2c(Oc3ccc(NC(=O)c4c(C)nc(C)c(-c5ccc(F)cc5C)c4O)cc3F)ccnc2c1 [Compound 461, 5-(4-fluoro-2-methylphenyl)-N-[3-fluoro-4-[(7-prop-1-en-2-yl-1,5-naphthyridin-4-yl)oxy]phenyl]-4-hydroxy-2,6-dimethylpyridine-3-carboxamide]
< 100 nM | < 100 nM | < 100 nM | < 100 nM | – | – | – | – | C=C(C)c1cnc2c(Oc3ccc(NC(=O)c4n[nH]c(C)c(-c5ccc(F)cc5)c4=O)cc3F)ccnc2c1 [Compound 464, 5-(4-fluorophenyl)-N-[3-fluoro-4-[(7-prop-1-en-2-yl-1,5-naphthyridin-4-yl)oxy]phenyl]-6-methyl-4-oxo-1H-pyridazine-3-carboxamide]
< 100 nM | < 100 nM | < 100 nM | < 100 nM | – | – | – | – | CCOc1c(C(=O)Nc2ccc(Oc3ccnc4cc(OC)c(OC)cc34)c(F)c2)nnc(C)c1-c1ccc(F)cc1 [Compound 572, N-[4-(6,7-Dimethoxyquinolin-4-yl)oxy-3-fluorophenyl]-4-ethoxy-5-(4-fluorophenyl)-6-methylpyridazine-3-carboxamide]
> 300 nM | > 300 nM | 100 to 300 nM | > 300 nM | – | – | – | – | COc1cnc2c(Oc3ccc(NC(=O)c4c(C)nc(C)c(-c5ccc(C(C)C)cc5)c4O)cc3F)ccnc2c1 [Compound 690, N-[3-fluoro-4-[(7-methoxy-1,5-naphthyridin-4-yl)oxy]phenyl]-4-hydroxy-2,6-dimethyl-5-(4-propan-2-ylphenyl)pyridine-3-carboxamide]
< 100 nM | < 100 nM | < 100 nM | < 100 nM | – | – | – | – | COc1cc2nccc(Oc3ccc(NC(=O)c4c(C)c(Br)c(C)n(-c5ccc(F)cc5)c4=O)cc3)c2nc1OC [Compound 313, 5-Bromo-N-[4-[(6,7-dimethoxy-1,5-naphthyridin-4-yl)oxy]phenyl]-1-(4-fluorophenyl)-4,6-dimethyl-2-oxopyridine-3-carboxamide]
< 100 nM | < 100 nM | < 100 nM | < 100 nM | – | – | – | – | COc1cc2nccc(Oc3ccc(NC(=O)c4c(C)n(C)nc(-c5ccc(F)cc5)c4=O)cc3F)c2nc1OC [Compound 655, N-[4-[(6,7-dimethoxy-1,5-naphthyridin-4-yl)oxy]-3-fluorophenyl]-6-(4-fluorophenyl)-2,3-dimethyl-5-oxopyridazine-4-carboxamide]
< 100 nM | < 100 nM | < 100 nM | 100 to 300 nM | – | – | – | – | COc1cc2nccc(Oc3ccc(NC(=O)c4c(OC)n(C)c(C)c(-c5ccc(F)cc5)c4=O)cc3F)c2nc1OC [Compound 648, N-[4-[(6,7-dimethoxy-1,5-naphthyridin-4-yl)oxy]-3-fluorophenyl]-5-(4-fluorophenyl)-2-methoxy-1,6-dimethyl-4-oxopyridine-3-carboxamide]
< 100 nM | < 100 nM | < 100 nM | > 300 nM | – | – | – | – | COc1cnc2c(Oc3ccc(NC(=O)c4cn(C)c(C5CC5)c(-c5ccc(F)cc5)c4=O)cc3F)ccnc2c1 [Compound 685, 6-cyclopropyl-N-[3-fluoro-4-[(7-methoxy-1,5-naphthyridin-4-yl)oxy]phenyl]-5-(4-fluorophenyl)-1-methyl-4-oxopyridine-3-carboxamide]
< 100 nM | < 100 nM | < 100 nM | > 300 nM | – | – | – | – | COCCOc1cc2c(Oc3ccc(NC(=O)c4cn(C)c(C)c(-c5ccc(F)cc5)c4=O)cc3F)ccnc2nc1OC [Compound 760, N-[3-fluoro-4-[[7-methoxy-6-(2-methoxyethoxy)-1,8-naphthyridin-4-yl]oxy]phenyl]-5-(4-fluorophenyl)-1,6-dimethyl-4-oxopyridine-3-carboxamide]
